Usually IC50 stands for the concentration that inhibits the measured activity by half. Low values mean inhibition by little substance, high ones a need for much substance.

For the assay, the target named is T1, STAT5a (Homo sapiens, UniProt P42229).
T1 sequence (P42229 1-794): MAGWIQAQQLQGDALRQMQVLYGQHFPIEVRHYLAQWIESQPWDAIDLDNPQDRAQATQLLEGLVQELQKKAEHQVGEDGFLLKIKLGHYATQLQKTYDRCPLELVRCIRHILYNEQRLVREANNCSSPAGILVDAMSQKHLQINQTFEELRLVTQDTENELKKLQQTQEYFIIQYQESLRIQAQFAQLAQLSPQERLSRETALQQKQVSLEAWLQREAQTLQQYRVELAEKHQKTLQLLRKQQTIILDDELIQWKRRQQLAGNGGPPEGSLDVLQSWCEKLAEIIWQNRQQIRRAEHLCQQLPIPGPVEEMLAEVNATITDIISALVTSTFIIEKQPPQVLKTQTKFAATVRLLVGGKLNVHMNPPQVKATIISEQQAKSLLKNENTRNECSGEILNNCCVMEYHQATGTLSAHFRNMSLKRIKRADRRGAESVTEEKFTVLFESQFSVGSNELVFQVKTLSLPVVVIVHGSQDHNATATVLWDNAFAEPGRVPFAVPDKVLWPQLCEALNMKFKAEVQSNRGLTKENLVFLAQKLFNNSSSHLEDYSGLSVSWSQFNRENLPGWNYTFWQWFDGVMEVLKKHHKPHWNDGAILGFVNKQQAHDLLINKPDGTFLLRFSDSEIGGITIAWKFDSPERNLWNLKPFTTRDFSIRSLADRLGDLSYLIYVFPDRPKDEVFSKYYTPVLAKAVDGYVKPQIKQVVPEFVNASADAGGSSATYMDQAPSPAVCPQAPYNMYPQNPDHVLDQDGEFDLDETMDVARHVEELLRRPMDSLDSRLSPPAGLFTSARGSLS
The assay can be described thus: Competitive fluorescence polarization (FP) assay, STAT5a. The class given is binding. Particulars: no reducing agent, 1 h. An excerpt:
Screening of chemical libraries
Screening of chemical libraries comprising approximately 5000 known bioactive compounds in fluorescence polarization-based assays against phosphorylation-dependent protein-protein interaction domains, including STAT proteins, has been described.[1] PPADS was purchased from Sigma-Aldrich, and iso-PPADS from Bio-Techne.
Fluorescence polarization assays
Competitive fluorescence polarization (FP) assays for STAT1,[2] STAT3,[3] STAT4,[4] STAT5a,[5] STAT5b[6] and STAT6[1] were performed as previously described. Briefly, peptide binding to proteins was analyzed using the following carboxyfluorescein (CF) -labelled pepti des at a concentration of 10 nM: STAT1: 5-CF-GpYDKPHVL-OH, STAT3: 5-CF-GpYLPQTV -NH2, STAT4: 5-CF-GpYLPQNID-OH, STAT5a and STAT5b: 5-CF-GpYLVLDKW-OH, STAT6: 5- […]
CFGp[…]-OH. […] FP was measured using an Infinite F500 plate reader (Tecan) and measurements were converted into percent inhibition according to the binding curve equation. Curves were plotted and best fits calculated using OriginPro […]
Homogenous time-resolved fluorescence (HTRF) assays for STAT3, STAT4, STAT5a and STAT5b were carried out using Cisbio Monoclonal Antibody Anti-6His-Tb Gold as the fluorescence donor (Perkin Elmer) and the corresponding CF-labelled binding peptide as the acceptor. […] The average reading from 3 wells was obtained. […]

In turn, `Cc1nc(/N=N/c2cc(S(=O)(=O)O)ccc2S(=O)(=O)O)c(COP(=O)(O)O)c(C=O)c1O` [iso‐PPADS] yielded a 50% inhibitory concentration (IC50) of 4.8 ± 0.4 µM.

The molecule `Cc1nc(/N=N/c2ccc(S(=O)(=O)O)cc2S(=O)(=O)O)c(COP(=O)(O)O)c(C=O)c1O` [PPADS, pyridoxalphosphate‐6‐azophenyl‐2',4'‐disulfonic acid] yielded a half-inhibitory concentration (IC50) of 1.5 ± 0.2 µM. Against the preceding molecule, the IC50 is about 3.2-fold lower.

These data come from publication PMC12442245, “Activity Analysis of the P2X Receptor Antagonist PPADS against Signal Transducer and Activator of Transcription Proteins” (Chembiochem, 2025).
